Measurements taken from patent publication US9381257B2, “Triarylmethyl radicals” (BRACCO IMAGING S.P.A., priority 2012, dated 2016).

Tests used:
[1] = DNP polarization build-up and dissolution of ethylacetoacetate with the radical as polarizing agent; settings: 18 mM radical in 15-Crown-5 / 1,3-13C2 ethylacetoacetate; DNP at 1.2 K, 3.35 T, microwave irradiation
Description: Radical 1 (1.50 mg, 1.4 μmol) was dissolved in 15-Crown-5 (60.5 μl, 67.2 mg) to make a 24 mM solution. To 30 μl (33.7 mg) of this solution was added 1,3-^13C2 ethylacetoacetate (10.5 mg, 79 μmol, 158 μmol ^13C). The radical 1 concentration in the mixture was 18 mM.
43 mg of the composition prepared above were transferred from the Eppendorf tube to a sample cup and the sample cup was inserted into a DNP polarizer. The composition was polarised under DNP conditions at 1.2 K in a 3.35 T magnetic field under irradiation with microwave (93.900 GHz). The calculated solid-state polarization was 17% and the polarization build-up constant was 900 s.
The sample was dissolved in 6 ml 40 mM phosphate buffer pH 7.3+100 mg/l EDTA. A time series of 1D 13C-NMR spectra were recorded with a total delay between the pulses of 3 s. The liquid state polarization was 14% after 12 s transfer time. The pH was 7.3 in the dissolved sample. […]
43 mg of the composition prepared above were transferred from the Eppendorf tube to a sample cup and the sample cup was inserted into a DNP polarizer. […] The calculated solid-state polarization was 18% and the polarization build-up constant was 1700 s.
The sample was dissolved in 6 ml 40 mM phosphate buffer pH 7.3+100 mg/l EDTA. A time series of 1D 13C-NMR spectra were recorded with a total delay between the pulses of 3 s. […]

[2] = Precipitation of the radical on aqueous dissolution and removal by mechanical filtration (UV-Vis check of filtrate); assay type: physicochemical
Description: The sample was dissolved in 6 ml 40 mM phosphate buffer pH 7.3+100 mg/l EDTA. A time series of 1D 13C-NMR spectra were recorded with a total delay between the pulses of 3 s. The liquid state polarization was 14% after 12 s transfer time. The pH was 7.3 in the dissolved sample.
The sample was dissolved in 6 ml 40 mM phosphate buffer pH 7.3+100 mg/l EDTA. A time series of 1D 13C-NMR spectra were recorded with a total delay between the pulses of 3 s. The liquid state polarization was 15% after 12 s transfer time. The pH was 7.3 in the dissolved sample. The sample was filtered through a syringe filter (Acrodisk 25 mm PVDF filter, 0.45 μm pore size). Filtration of the full volume was completed in <3 s. […] Since the high extinction coefficients of the trityl radicals allow reliable determination of concentration down to approximately 1-1.5 μM, the concentration in the filtrate was below these values. The radical was removed to >99%.

precipitation of the radical in water dissolution ([2]; dissolved in 6 ml 40 mM phosphate buffer pH 7.3 + 100 mg/l EDTA): does not precipitate
Substance: tris{8-carboxyl-2,2,6,6-tetramethyl-benzo(1,2-d:4,5-dS)bis(1,3)dithiole-4-yl}methyl sodium salt [Radical 1, reference compound]
polarization build-up constant [1]: 900 s | removal of the radical by mechanical filtration ([2]; after water dissolution): cannot be removed by mechanical filtration
